Measurements reported in patent publication US12473250B2, “Molecular design of new antibiotics and antibiotic adjuvants against MCR strains” (priority 2019, dated 2025).

Tests used:
[1] = test system: KLPN multi-drug resistant strains; experiment: MIC against multi-drug resistant strains (Table 5); type: cell-based, Klebsiella pneumonia; details: alone
Experimental: MIC experiments of the antimicrobial agents were determined by a modified broth microdilution method in accordance with the Clinical and Laboratory Standards Institute (CLSI) guidelines using 96 well culture plates. In brief, serial dilutions of all plates were prepared at different concentrations (μg). The inoculum suspension was prepared by adding isolated colonies from a 18-20 hours on TSA plate into phosphate buffer (0.31 mM, pH 7.2) or in water for injection (BBraun) and adjusting the suspension to a turbidity equivalent to 0.5 McFarland Standard. Each well contained a final bacterial concentration of approximately 5×10^5 colony forming units (CFU)/mL. The plate was covered and incubated at 35° C. for 24 hours. […] For the microdilution plates, turbidity in wells can be measured at OD600 using TECAN infinite M200Pro. MIC was determined as […] concentration that gives a 99 percent inhibition.

[2] = test system: various pathogens; experiment: organism not typed; type: cell-based
Experimental: The MICs of the individual drugs and LC compound in combinations were determined using the broth microdilution technique as recommended by the CLSI whereby the two anti-microbial agents were added in an equal amount. (e.g.: 50 μL of Colistin: 50 μL of LC compounds). Diluted media containing compounds and antibiotics will be serially diluted 2-fold, and LC compounds and antibiotics alone or in combination will be assayed at fixed synergy concentration. In all cases, the lowest concentration at which no visible growth occurred was be recorded to be the MIC value of individual and combined antibacterial agents. The results were obtained after 24 hours of incubation.
Using the combination of LC100 and colistin, the activity of a broad range of strains was further tested (Table 7).

[3] = 6093560257 [MCR 1+, E. Coli, NDM-1]
[4] = 7103531927 [MCR 1+, E. Coli, KPC+]
[5] = 7113636863 [MCR 1+, E. Coli, NDM-1]

## CCN(CC)CCCCOc1ccc(/C=C/C(=O)c2ccc(OCCCCN(CC)CC)c(CC=C(C)C)c2O)cc1 [LC100]
[1]; strain KLPN 8852
  MIC: >50 µg/mL
[1]; strain KLPN 15588
  MIC: >50 µg/mL
[1]; strain KLPN 24076
  MIC: >50 µg/mL
[1]; strain KLPN 27025
  MIC: >50 µg/mL
[2]; 6083655967 [MCR 1+, E. Coli]
  Pathogen sensitivity (✓/x), Colistin 0.5 μg+ LC100 1 μg: ✓
  Pathogen sensitivity (✓/x), Colistin 0.5 μg+ LC100 2 μg: ✓
  Pathogen sensitivity (✓/x), Colistin 1 μg+ LC100 1 μg: ✓
  Pathogen sensitivity (✓/x), Colistin 1 μg+ LC100 2 μg: ✓
[2]; [3]
  Pathogen sensitivity (✓/x), Colistin 0.5 μg+ LC100 1 μg: ✓
  Pathogen sensitivity (✓/x), Colistin 0.5 μg+ LC100 2 μg: ✓
  Pathogen sensitivity (✓/x), Colistin 1 μg+ LC100 1 μg: ✓
  Pathogen sensitivity (✓/x), Colistin 1 μg+ LC100 2 μg: ✓
[2]; 6123520276 [MCR 1+, E. Coli]
  Pathogen sensitivity (✓/x), Colistin 0.5 μg+ LC100 1 μg: ✓
  Pathogen sensitivity (✓/x), Colistin 0.5 μg+ LC100 2 μg: ✓
  Pathogen sensitivity (✓/x), Colistin 1 μg+ LC100 1 μg: ✓
  Pathogen sensitivity (✓/x), Colistin 1 μg+ LC100 2 μg: ✓
[2]; 7023436560 [MCR 1+, E. Coli]
  Pathogen sensitivity (✓/x), Colistin 0.5 μg+ LC100 1 μg: ✓
  Pathogen sensitivity (✓/x), Colistin 0.5 μg+ LC100 2 μg: ✓
  Pathogen sensitivity (✓/x), Colistin 1 μg+ LC100 1 μg: ✓
  Pathogen sensitivity (✓/x), Colistin 1 μg+ LC100 2 μg: ✓
[2]; 7023444207 [MCR 1+, E. Coli]
  Pathogen sensitivity (✓/x), Colistin 0.5 μg+ LC100 1 μg: ✓
  Pathogen sensitivity (✓/x), Colistin 0.5 μg+ LC100 2 μg: ✓
  Pathogen sensitivity (✓/x), Colistin 1 μg+ LC100 1 μg: ✓
  Pathogen sensitivity (✓/x), Colistin 1 μg+ LC100 2 μg: ✓
[2]; 7023446108 [MCR 1−, E. Coli]
  Pathogen sensitivity (✓/x), Colistin 0.5 μg+ LC100 1 μg: ✓
  Pathogen sensitivity (✓/x), Colistin 0.5 μg+ LC100 2 μg: ✓
  Pathogen sensitivity (✓/x), Colistin 1 μg+ LC100 1 μg: ✓
  Pathogen sensitivity (✓/x), Colistin 1 μg+ LC100 2 μg: ✓
[2]; 7033607097 [MCR 1−, E. Coli]
  Pathogen sensitivity (✓/x), Colistin 0.5 μg+ LC100 1 μg: ✓
  Pathogen sensitivity (✓/x), Colistin 0.5 μg+ LC100 2 μg: ✓
  Pathogen sensitivity (✓/x), Colistin 1 μg+ LC100 1 μg: ✓
  Pathogen sensitivity (✓/x), Colistin 1 μg+ LC100 2 μg: ✓
[2]; [4]
  Pathogen sensitivity (✓/x), Colistin 0.5 μg+ LC100 1 μg: ✓
  Pathogen sensitivity (✓/x), Colistin 0.5 μg+ LC100 2 μg: ✓
  Pathogen sensitivity (✓/x), Colistin 1 μg+ LC100 1 μg: ✓
  Pathogen sensitivity (✓/x), Colistin 1 μg+ LC100 2 μg: ✓
[2]; [5]
  Pathogen sensitivity (✓/x), Colistin 0.5 μg+ LC100 1 μg: ✓
  Pathogen sensitivity (✓/x), Colistin 0.5 μg+ LC100 2 μg: ✓
  Pathogen sensitivity (✓/x), Colistin 1 μg+ LC100 1 μg: ✓
  Pathogen sensitivity (✓/x), Colistin 1 μg+ LC100 2 μg: ✓
[2]; KLPN ATCC 10031
  Pathogen sensitivity (✓/x), Colistin 0.5 μg+ LC100 1 μg: ✓
[2]; KLPN CRE 15588
  Pathogen sensitivity (✓/x), Colistin 0.5 μg+ LC100 1 μg: ✓
  Pathogen sensitivity (✓/x), Colistin 1 μg+ LC100 1 μg: ✓
[2]; KLPN CRE 16260
  Pathogen sensitivity (✓/x), Colistin 0.5 μg+ LC100 1 μg: ✓
  Pathogen sensitivity (✓/x), Colistin 0.5 μg+ LC100 2 μg: ✓
  Pathogen sensitivity (✓/x), Colistin 0.5 μg+ LC100 5 μg: ✓
  Pathogen sensitivity (✓/x), Colistin 1 μg+ LC100 1 μg: ✓
  Pathogen sensitivity (✓/x), Colistin 1 μg+ LC100 2 μg: ✓
  Pathogen sensitivity (✓/x), Colistin 1 μg+ LC100 5 μg: ✓
[2]; PAE ATCC 15442
  Pathogen sensitivity (✓/x), Colistin 0.5 μg+ LC100 1 μg: ✓
  Pathogen sensitivity (✓/x), Colistin 0.5 μg+ LC100 2 μg: ✓
  Pathogen sensitivity (✓/x), Colistin 1 μg+ LC100 1 μg: ✓
[2]; PAE ATCC BAA-1744
  Pathogen sensitivity (✓/x), Colistin 0.5 μg+ LC100 1 μg: ✓
  Pathogen sensitivity (✓/x), Colistin 0.5 μg+ LC100 2 μg: ✓
[2]; PAE DM 4150
  Pathogen sensitivity (✓/x), Colistin 0.5 μg+ LC100 1 μg: ✓
  Pathogen sensitivity (✓/x), Colistin 0.5 μg+ LC100 2 μg: ✓
  Pathogen sensitivity (✓/x), Colistin 0.5 μg+ LC100 5 μg: ✓
[2]; PAE DM 23155
  Pathogen sensitivity (✓/x), Colistin 0.5 μg+ LC100 1 μg: ✓
  Pathogen sensitivity (✓/x), Colistin 0.5 μg+ LC100 2 μg: ✓
  Pathogen sensitivity (✓/x), Colistin 1 μg+ LC100 1 μg: ✓
  Pathogen sensitivity (✓/x), Colistin 1 μg+ LC100 2 μg: ✓
[2]; PAE DM 23257
  Pathogen sensitivity (✓/x), Colistin 0.5 μg+ LC100 1 μg: ✓
  Pathogen sensitivity (✓/x), Colistin 0.5 μg+ LC100 2 μg: ✓
  Pathogen sensitivity (✓/x), Colistin 0.5 μg+ LC100 5 μg: ✓
  Pathogen sensitivity (✓/x), Colistin 1 μg+ LC100 1 μg: ✓
[2]; PAE DM 23376
  Pathogen sensitivity (✓/x), Colistin 0.5 μg+ LC100 1 μg: ✓
  Pathogen sensitivity (✓/x), Colistin 0.5 μg+ LC100 2 μg: ✓
[2]; PAE DR 5790
  Pathogen sensitivity (✓/x), Colistin 0.5 μg+ LC100 1 μg: ✓
[2]; PAE DU 14476
  Pathogen sensitivity (✓/x), Colistin 0.5 μg+ LC100 1 μg: ✓
  Pathogen sensitivity (✓/x), Colistin 0.5 μg+ LC100 2 μg: ✓
  Pathogen sensitivity (✓/x), Colistin 0.5 μg+ LC100 5 μg: ✓
  Pathogen sensitivity (✓/x), Colistin 1 μg+ LC100 1 μg: ✓
